Assay results from patent US6620833B1, “Substituted benzimidazoles, production and use thereof as agents for combating parasitic protozoas” (Bayer Aktiengesellschaft, priority 1998, dated 2003).

Legend:
Format in all cases: in vivo
Eimeria acervulina = experiment: Cage experiment on coccidiosis/chicks, E. acervulina readout; details: first symbol of cell
Eimeria maxima = experiment: Cage experiment on coccidiosis/chicks, E. maxima readout; details: second symbol of cell
Eimeria tenella = experiment: Cage experiment on coccidiosis/chicks, E. tenella readout; details: third symbol of cell
Note: key: 2=full action; 1=slight action; 0=inactive; D=death.

## COC(=O)N(C)Cn1c(C(F)(F)F)nc2c(Cl)cc3c(c21)OC(F)(F)C(F)(F)O3 [Ex. 3]
Eimeria acervulina; Table 4, dose 2.5 ppm
  Efficacy against Eimeria acervulina: 0
Eimeria acervulina; Table 4, dose 5 ppm
  Efficacy against Eimeria acervulina: 2
Eimeria acervulina; Table 4, dose 10 ppm
  Efficacy against Eimeria acervulina: 2
Eimeria maxima; Table 4, dose 2.5 ppm
  Efficacy against Eimeria maxima: 2
Eimeria maxima; Table 4, dose 5 ppm
  Efficacy against Eimeria maxima: 2
Eimeria maxima; Table 4, dose 10 ppm
  Efficacy against Eimeria maxima: 2
Eimeria tenella; Table 4, dose 2.5 ppm
  Efficacy against Eimeria tenella: 1
Eimeria tenella; Table 4, dose 5 ppm
  Efficacy against Eimeria tenella: 2
Eimeria tenella; Table 4, dose 10 ppm
  Efficacy against Eimeria tenella: 2

## COC(=O)N(Cn1c(C(F)(F)F)nc2c(Cl)cc3c(c21)OC(F)(F)C(F)(F)O3)c1ccccc1C [Ex. 8]
Eimeria acervulina; Table 4, dose 2.5 ppm
  Efficacy against Eimeria acervulina: 0
Eimeria acervulina; Table 4, dose 5 ppm
  Efficacy against Eimeria acervulina: 0
Eimeria acervulina; Table 4, dose 10 ppm
  Efficacy against Eimeria acervulina: 2
Eimeria maxima; Table 4, dose 2.5 ppm
  Efficacy against Eimeria maxima: 0
Eimeria maxima; Table 4, dose 5 ppm
  Efficacy against Eimeria maxima: 1
Eimeria maxima; Table 4, dose 10 ppm
  Efficacy against Eimeria maxima: 2
Eimeria tenella; Table 4, dose 2.5 ppm
  Efficacy against Eimeria tenella: 0
Eimeria tenella; Table 4, dose 5 ppm
  Efficacy against Eimeria tenella: 1
Eimeria tenella; Table 4, dose 10 ppm
  Efficacy against Eimeria tenella: 2

## COC(=O)N(C)Cn1c(C(F)(F)F)nc2c(Br)cc3c(c21)OC(F)(F)C(F)(F)O3 [Ex. 2]
Eimeria acervulina; Table 4, dose 2.5 ppm
  Efficacy against Eimeria acervulina: 1
Eimeria acervulina; Table 4, dose 5 ppm
  Efficacy against Eimeria acervulina: 2
Eimeria acervulina; Table 4, dose 10 ppm
  Efficacy against Eimeria acervulina: D D D
Eimeria maxima; Table 4, dose 2.5 ppm
  Efficacy against Eimeria maxima: 2
Eimeria maxima; Table 4, dose 5 ppm
  Efficacy against Eimeria maxima: 2
Eimeria maxima; Table 4, dose 10 ppm
  Efficacy against Eimeria maxima: D D D
Eimeria tenella; Table 4, dose 2.5 ppm
  Efficacy against Eimeria tenella: 1
Eimeria tenella; Table 4, dose 5 ppm
  Efficacy against Eimeria tenella: 2
Eimeria tenella; Table 4, dose 10 ppm
  Efficacy against Eimeria tenella: D D D

## CCN(Cn1c(C(F)(F)F)nc2c(Cl)cc3c(c21)OC(F)(F)C(F)(F)O3)C(=O)OC [Ex. 4]
Eimeria acervulina; Table 4, dose 2.5 ppm
  Efficacy against Eimeria acervulina: 1
Eimeria acervulina; Table 4, dose 5 ppm
  Efficacy against Eimeria acervulina: 1
Eimeria acervulina; Table 4, dose 10 ppm
  Efficacy against Eimeria acervulina: 1
Eimeria maxima; Table 4, dose 2.5 ppm
  Efficacy against Eimeria maxima: 2
Eimeria maxima; Table 4, dose 5 ppm
  Efficacy against Eimeria maxima: 1
Eimeria maxima; Table 4, dose 10 ppm
  Efficacy against Eimeria maxima: 1
Eimeria tenella; Table 4, dose 2.5 ppm
  Efficacy against Eimeria tenella: 1
Eimeria tenella; Table 4, dose 5 ppm
  Efficacy against Eimeria tenella: 1
Eimeria tenella; Table 4, dose 10 ppm
  Efficacy against Eimeria tenella: 1

## CCOC(=O)N(Cn1c(C(F)(F)F)nc2c(Cl)cc3c(c21)OC(F)(F)C(F)(F)O3)C1CCCCC1 [Ex. 9]
Eimeria acervulina; Table 4, dose 2.5 ppm
  Efficacy against Eimeria acervulina: 0
Eimeria acervulina; Table 4, dose 5 ppm
  Efficacy against Eimeria acervulina: 2
Eimeria acervulina; Table 4, dose 10 ppm
  Efficacy against Eimeria acervulina: 2
Eimeria maxima; Table 4, dose 2.5 ppm
  Efficacy against Eimeria maxima: 1
Eimeria maxima; Table 4, dose 5 ppm
  Efficacy against Eimeria maxima: 2
Eimeria maxima; Table 4, dose 10 ppm
  Efficacy against Eimeria maxima: 2
Eimeria tenella; Table 4, dose 2.5 ppm
  Efficacy against Eimeria tenella: 1
Eimeria tenella; Table 4, dose 5 ppm
  Efficacy against Eimeria tenella: 1
Eimeria tenella; Table 4, dose 10 ppm
  Efficacy against Eimeria tenella: 2

## CCOC(=O)N(Cn1c(C(F)(F)F)nc2c(Br)cc3c(c21)OC(F)(F)C(F)(F)O3)C(C)C [Ex. 6]
Eimeria acervulina; Table 4, dose 2.5 ppm
  Efficacy against Eimeria acervulina: 1
Eimeria acervulina; Table 4, dose 5 ppm
  Efficacy against Eimeria acervulina: 2
Eimeria acervulina; Table 4, dose 10 ppm
  Efficacy against Eimeria acervulina: 2
Eimeria maxima; Table 4, dose 2.5 ppm
  Efficacy against Eimeria maxima: 1
Eimeria maxima; Table 4, dose 5 ppm
  Efficacy against Eimeria maxima: 2
Eimeria maxima; Table 4, dose 10 ppm
  Efficacy against Eimeria maxima: 2
Eimeria tenella; Table 4, dose 2.5 ppm
  Efficacy against Eimeria tenella: 1
Eimeria tenella; Table 4, dose 5 ppm
  Efficacy against Eimeria tenella: 2
Eimeria tenella; Table 4, dose 10 ppm
  Efficacy against Eimeria tenella: 2
